pIC50: −log10 of the molar value. The source made the active and inactive calls. No cut-off for these calls is given here.
How the values were obtained:
CCRF-CEM [1] = test: Induction of cell cycle arrest in human CEM cells assessed as increase in accumulation of cells at S-phase after 24 hrs by flow cytometric analysis relative to untreated control; assay type: functional, cell-based
CCRF-CEM [2] = test: Induction of apoptosis in human CEM cells assessed as increase in caspase-3 activity using Ac-DEVD-AMC as a substrate at 5 uM after 24 hrs by fluorescence microplate reader assay relative to untreated control; assay type: functional
HCT-116 = test: Cytotoxicity against human HCT116 assessed as viable cells after 72 hrs by calcein AM assay; assay type: functional, cell-based; conditions: HCT-116, 72 h
A549 = test: Cytotoxicity against human A549 cells assessed as viable cells after 72 hrs by calcein AM assay; assay type: functional, cell-based; conditions: A549, 72 h
CCRF-CEM [3] = test: Induction of cell cycle arrest in human CEM cells assessed as increase in accumulation of cells at G2/M-phase after 24 hrs by flow cytometric analysis relative to untreated control; assay type: functional, cell-based
CCRF-CEM [4] = test: Cytotoxicity against human CEM cells assessed as viable cells after 72 hrs by calcein AM assay; assay type: functional, cell-based
CCRF-CEM [5] = test: Induction of apoptosis in human CEM cells assessed as increase in amount of DNA at subG1-phase after 24 hrs by flow cytometric analysis relative to untreated control; assay type: functional, cell-based
BJ = test: Cytotoxicity against human BJ cells assessed as viable cells after 72 hrs by calcein AM assay; assay type: cell-based
CCRF-CEM [6] = test: Induction of apoptosis in human CEM cells assessed as increase in Bcl-2 protein level after 24 hrs by Western blot analysis relative to untreated control; assay type: functional, cell-based
CCRF-CEM [7] = test: Induction of apoptosis in human CEM cells assessed as effect on retinoblastoma protein expression at 1 to 5 uM after 24 hrs by Western blot analysis relative to untreated control; assay type: functional, cell-based
G-361 = test: Cytotoxicity against human G361 cells assessed as viable cells after 72 hrs by calcein AM assay; assay type: functional, cell-based; conditions: G-361, 72 h
CCRF-CEM [8] = test: Induction of apoptosis in human CEM cells assessed as increase in caspase-3 activity using Ac-DEVD-AMC as a substrate at 1 uM after 24 hrs by fluorescence microplate reader assay relative to untreated control; assay type: functional
CCRF-CEM [9] = test: Induction of apoptosis in human CEM cells assessed as increase in caspase-7 activity using Ac-DEVD-AMC as a substrate at 1 uM after 24 hrs by fluorescence microplate reader assay relative to untreated control; assay type: functional
CCRF-CEM [10] = test: Induction of cell cycle arrest in human CEM cells assessed as reduction in accumulation of cells at G0/G1-phase after 24 hrs by flow cytometric analysis relative to untreated control; assay type: functional, cell-based
HOS = test: Cytotoxicity against human HOS cells assessed as viable cells after 72 hrs by calcein AM assay; assay type: functional, cell-based
HeLa = test: Cytotoxicity against human HeLa cells assessed as viable cells after 72 hrs by calcein AM assay; assay type: functional, cell-based
CCRF-CEM [11] = test: Induction of apoptosis in human CEM cells assessed as effect on […] protein expression at 1 to 5 uM after 24 hrs by Western blot analysis relative to untreated control; assay type: functional, cell-based
CCRF-CEM [12] = test: Induction of apoptosis in human CEM cells assessed as accumulation of caspase-3 after 24 hrs by Western blot analysis relative to untreated control; assay type: functional, cell-based
MCF7 = test: Cytotoxicity against human MCF7 cells assessed as viable cells after 72 hrs by calcein AM assay; assay type: functional, cell-based; conditions: MCF7, 72 h
CCRF-CEM [13] = test: Induction of apoptosis in human CEM cells assessed as increase in caspase-7 activity using Ac-DEVD-AMC as a substrate at 2 uM after 24 hrs by fluorescence microplate reader assay relative to untreated control; assay type: functional
[14] = Cytotoxicity against human T98 cells assessed as viable cells after 72 hrs by calcein AM assay; assay type: functional, cell-based; conditions: T98, 72 h
CCRF-CEM [15] = test: Induction of apoptosis in human CEM cells assessed as increase in caspase-7 activity using Ac-DEVD-AMC as a substrate at 5 uM after 24 hrs by fluorescence microplate reader assay relative to untreated control; assay type: functional
CCRF-CEM [16] = test: Induction of apoptosis in human CEM cells assessed as cleavage of PARP at 1 to 5 uM after 24 hrs by Western blot analysis relative to untreated control; assay type: functional, cell-based
CCRF-CEM [17] = test: Induction of apoptosis in human CEM cells assessed as increase in caspase-3 activity using Ac-DEVD-AMC as a substrate at 2 uM after 24 hrs by fluorescence microplate reader assay relative to untreated control; assay type: functional
CCRF-CEM [18] = test: Induction of apoptosis in human CEM cells assessed as increase in caspase-3 activity using Ac-DEVD-AMC as a substrate at 0.5 uM after 24 hrs by fluorescence microplate reader assay relative to untreated control; assay type: functional
CCRF-CEM [19] = test: Induction of apoptosis in human CEM cells assessed as increase in caspase-3 activity using Ac-DEVD-AMC as a substrate at 0.25 uM after 24 hrs by fluorescence microplate reader assay relative to untreated control; assay type: functional
CCRF-CEM [20] = test: Induction of apoptosis in human CEM cells assessed as effect on retinoblastoma protein expression at 0.1 to 0.5 uM after 24 hrs by Western blot analysis relative to untreated control; assay type: functional, cell-based
CCRF-CEM [21] = test: Induction of apoptosis in human CEM cells assessed as increase in caspase-7 activity using Ac-DEVD-AMC as a substrate at 0.5 uM after 24 hrs by fluorescence microplate reader assay relative to untreated control; assay type: functional
CCRF-CEM [22] = test: Induction of apoptosis in human CEM cells assessed as increase in caspase-7 activity using Ac-DEVD-AMC as a substrate at 0.25 uM after 24 hrs by fluorescence microplate reader assay relative to untreated control; assay type: functional
CCRF-CEM [23] = test: Induction of apoptosis in human CEM cells assessed as effect on […] protein expression at 0.1 to 0.5 uM after 24 hrs by Western blot analysis relative to untreated control; assay type: functional, cell-based
CCRF-CEM [24] = test: Induction of apoptosis in human CEM cells assessed as cleavage of PARP at 0.1 to 0.5 uM after 24 hrs by Western blot analysis relative to untreated control; assay type: functional, cell-based
CCRF-CEM [25] = test: Induction of apoptosis in human CEM cells assessed as cleavage of PARP at 5 to 10 uM after 24 hrs by Western blot analysis relative to untreated control; assay type: functional, cell-based
CCRF-CEM [26] = test: Induction of apoptosis in human CEM cells assessed as effect on retinoblastoma protein expression at 5 to 10 uM after 24 hrs by Western blot analysis relative to untreated control; assay type: functional, cell-based
CCRF-CEM [27] = test: Induction of apoptosis in human CEM cells assessed as increase in caspase-7 activity using Ac-DEVD-AMC as a substrate at 7.5 uM after 24 hrs by fluorescence microplate reader assay relative to untreated control; assay type: functional
CCRF-CEM [28] = test: Induction of apoptosis in human CEM cells assessed as increase in caspase-3 activity using Ac-DEVD-AMC as a substrate at 10 uM after 24 hrs by fluorescence microplate reader assay relative to untreated control; assay type: functional
CCRF-CEM [29] = test: Induction of apoptosis in human CEM cells assessed as effect on […] protein expression at 5 to 10 uM after 24 hrs by Western blot analysis relative to untreated control; assay type: functional, cell-based
CCRF-CEM [30] = test: Induction of apoptosis in human CEM cells assessed as increase in caspase-3 activity using Ac-DEVD-AMC as a substrate at 7.5 uM after 24 hrs by fluorescence microplate reader assay relative to untreated control; assay type: functional
CCRF-CEM [31] = test: Induction of apoptosis in human CEM cells assessed as increase in caspase-7 activity using Ac-DEVD-AMC as a substrate at 10 uM after 24 hrs by fluorescence microplate reader assay relative to untreated control; assay type: functional

Row | Compound | Activity (CCRF-CEM [1]) | pIC50 (HCT-116) | pIC50 (A549) | Activity (CCRF-CEM [3]) | pIC50 (CCRF-CEM [4]) | Activity (CCRF-CEM [5]) | pIC50 (BJ) | Activity (CCRF-CEM [6]) | pIC50 (G-361) | Activity (CCRF-CEM [10]) | pIC50 (HOS) | pIC50 (HeLa) | Activity (CCRF-CEM [12]) | pIC50 (MCF7) | pIC50 [14] | other results
1 | COc1ccc(C(=O)OC[C@@H](C)[C@@]2(O)[C@@H](O[C@@H]3OC[C@H](O)[C@H](O[C@@H]4OC[C@@H](O)[C@H](O)[C@H]4OC(=O)c4ccc(OC)cc4)[C@H]3OC(C)=O)C[C@H]3[C@@H]4CC=C5C[C@@H](O)CC[C@]5(C)[C@H]4CC[C@@]32C)cc1 | Dose-dependent effect | 5.30 | 6.24 | Dose-dependent effect | 7.24 | Active | 7.41 | Dose-dependent effect | 6.77 | Dose-dependent effect | 5.27 | 6.47 | Dose-dependent effect | 6.39 | 7.26 | fold change (FC) (CCRF-CEM [2]): 1.8; Activity (CCRF-CEM [7]): inactive; fold change (FC) (CCRF-CEM [8]): 2.1; fold change (FC) (CCRF-CEM [9]): 2.1; Activity (CCRF-CEM [11]): inactive; fold change (FC) (CCRF-CEM [13]): 1.7; fold change (FC) (CCRF-CEM [15]): 1.8; Activity (CCRF-CEM [16]): Active; fold change (FC) (CCRF-CEM [17]): 1.7
2 | C=CCCCCCCCCC(=O)OC[C@@H](C)[C@@]1(O)[C@@H](O[C@@H]2OC[C@H](O)[C@H](O[C@@H]3OC[C@@H](O)[C@H](O)[C@H]3OC(=O)c3ccc(OC)cc3)[C@H]2OC(C)=O)C[C@H]2[C@@H]3CC=C4C[C@@H](O)CC[C@]4(C)[C@H]3CC[C@@]21C | Dose-dependent effect | 5.59 | 6.22 | Dose-dependent effect | 8.21 |  | 8.52 |  | 8.17 | Dose-dependent effect | 5.71 | 6.99 | Dose-dependent effect | 7.54 | 8.15 | fold change (FC) (CCRF-CEM [18]): 2.5; fold change (FC) (CCRF-CEM [19]): 2.5; Activity (CCRF-CEM [20]): inactive; fold change (FC) (CCRF-CEM [21]): 2.5; fold change (FC) (CCRF-CEM [22]): 2.5; Activity (CCRF-CEM [23]): inactive; Activity (CCRF-CEM [24]): Active
3 | C/C=C/C(=O)OC[C@@H](C)[C@@]1(O)[C@@H](O[C@@H]2OC[C@H](O)[C@H](O[C@@H]3OC[C@@H](O)[C@H](O)[C@H]3OC(=O)c3ccc(OC)cc3)[C@H]2OC(C)=O)C[C@H]2[C@@H]3CC=C4C[C@@H](O)CC[C@]4(C)[C@H]3CC[C@@]21C | Dose-dependent effect | < 4.30 | 6.26 | Dose-dependent effect | 6.47 | Active | 6.64 | Dose-dependent effect | 6.05 | Dose-dependent effect | < 4.30 | 5.71 | Dose-dependent effect | 6.08 | 6.03 | Activity (CCRF-CEM [25]): Active; Activity (CCRF-CEM [26]): inactive; fold change (FC) (CCRF-CEM [27]): 3; fold change (FC) (CCRF-CEM [28]): 3; Activity (CCRF-CEM [29]): inactive; fold change (FC) (CCRF-CEM [30]): 3; fold change (FC) (CCRF-CEM [31]): 3

Reference: ChEMBL document CHEMBL1773000, “Synthesis and biological activity of 22-deoxo-23-oxa analogues of saponin OSW-1” (J Med Chem, 2011)
